Test system: human leukocytes (granulocytes; lymphocytes and monocytes)
Test: Distribution of Tc-99m labeled peptides in human blood (Percoll density gradient)
Assay type: cell-based
Conditions: incubation 30 minutes
From the text: In order to confirm clinical effectiveness of the peptide of the present invention in human, binding affinities to leukocytes of two types of peptides of the present invention were examined by using human blood. The peptide 3 and the peptide 6 labeled with Tc-99m in Example 2 were separated into unlabeled peptides and labeled peptides, and purified by reversed phase HPLC under the same conditions as of HPLC in Example 2. […]
The conventionally known peptides, Tc-99m-peptide 11 and Tc-99m-peptide 12, were prepared. Each of the peptide 11 and the peptide 12 was dissolved in dimethylformamide to prepare a solution having the concentration of 0.1 mg/500 μl. A solution of SnCl2/10 mM hydrochloric acid (5 mg/10 ml) 50 μl was added to a tartaric acid/PBS solution (5 mg/200 μl), and the peptide solution was added thereto. Then ^99mTcO4^− solution (2738 MBq/ml) 0.25 μl was infused immediately thereafter and shaken for several seconds to perform labeling reaction at 120° C. for 10 minutes. Final concentration was about 855.6 MBq/125 mg/ml. Purification and measurement of radiochemical purity were performed by using preparative HPLC. Analysis was performed under the same conditions as in Example 2, i.e. gradient: 20%→50% (0.1% TFA acetonitrile/0.1% TFA water); 0→20 minutes. Radioactivity concentration after the purification was 287–311 MBq/ml.
Subsequently, a Percoll density gradient solution was prepared based on the method described in Example 3.
Blood, 20–30 ml, was collected from adult volunteers, 40 years old or less. The Tc-99m labeled peptides, 30 μl (111 MBq/ml, 1.8×10^−11 mol/ml as Tc-peptide) each, were added thereto and incubated for 30 minutes. The blood sample 2–3 ml was layered over carefully to the prepared Percoll density gradient solution. After centrifugation at 2000 rpm (800×g) for 15 minutes, the tube was frozen and each fraction was cut off by using a cutter, then the radioactivity of each fraction was measured using Auto-Well Gamma Counter to determine the radioactivity distribution of Tc-99m-labeled peptides in the blood components.

Substance: Tc-99m-glucoheptonic acid
- radioactivity distributed in the plasma fraction: 95.39%
- radioactivity distribution in the granulocyte fraction: 1.11 % of the radioactivity in the whole blood
- radioactivity distribution in the lymphocyte and monocyte fraction: 2.52 % of the radioactivity in the whole blood
